# Assay results: US20120270851A1, “USE OF […] THE TREATMENT OR PREVENTION OF MALARIA” (SANOFI, priority 2009, published 2012)
# Read-outs that look alike come from different tables or passages of the source.
# Key:
# P. vivax [1] = conditions: read-out: EC50 (effective concentration 50); blood isolates of P. vivax from patients, north-west Thailand; FIG. 1
# Experimental: (§1) In Vitro Evaluation of the Efficacy of Ferroquine Versus Other Reference Antimalaria Agents, on Blood Isolates Infected with P. vivax
# (§2) The test that follows is performed on 110 isolates of P. vivax, collected in the north-west of Thailand (Tak province) on consenting patients, infected with P. vivax and in the acute phase of the infection, who came for consultation at the Shoklo Malaria Research Unit (SMRU).
# (§3) The samples are collected 5 hours after their arrival and placed in 5 ml heparinized tubes, at room temperature.
# (§4) The platelets and leukocytes are removed from these isolates, by analogy with the method described in Kanlaya et al., Malaria Journal, 2009, 8:115.
# P. vivax [2] = conditions: FIG. 2
# Experimental: as §1, §2, §3, §4
# Russell, B. et al. 2008, Antimicrob. Agents Chemother. 52:1040-5.
substance,measurement,setting,value
ferroquine,EC50,P. vivax [1],~6 nM
same,IC50,"P. vivax [2]; read-out: IC50 (inhibitory concentration 50), mature trophozoite stage, mature trophozoite stage of P. vivax",21 nM
same,IC50,"P. vivax [2]; read-out: IC50 (inhibitory concentration 50), ring stage, young immature trophozoites (ring stage) of P. vivax",14 nM
